In patent publication US7973032B2, “Staurosporine derivatives for use in alveolar rhabdomyosarcoma” (University of Zurich, priority 2005, dated 2011):

Key:
aRMS = experiment: mouse xenograft tumor model; conditions: in vivo
Excerpt: (§1) Recently, we have established a gene signature characteristic for the Pediatric sarcoma alveolar rhabdomyosarcoma (aRMS), which expresses the chimaeric fusion protein PAX3/FKHR due to a chromosomal translocation event t(2; 13). Based on this signature, a number of potential therapeutic target molecules have been selected for further study, such as FGFR2. […] Furthermore, tumor growth could also be inhibited in vivo using a mouse xenograft tumor model.

PAX3/FKHR = target: T1, PAX3/FKHR (Homo sapiens, UniProt P23760+Q12778); experiment: expression of PAX3/FKHR specific target gene CB1; format: cell-based; conditions: upon treatment
T1 construct: FKHR (FOXO1, Q12778) C-terminal portion as fusion partner; endogenous in cells

aRMS cells [1] = experiment: cell growth of aRMS cells in vitro; format: cell-based
Excerpt: as §1

aRMS cells [2] = experiment: apoptosis / caspase 3 activity in aRMS cells; format: cell-based; conditions: aRMS cells in vitro
Excerpt: as §1

T1 sequence (P23760+Q12778 fused): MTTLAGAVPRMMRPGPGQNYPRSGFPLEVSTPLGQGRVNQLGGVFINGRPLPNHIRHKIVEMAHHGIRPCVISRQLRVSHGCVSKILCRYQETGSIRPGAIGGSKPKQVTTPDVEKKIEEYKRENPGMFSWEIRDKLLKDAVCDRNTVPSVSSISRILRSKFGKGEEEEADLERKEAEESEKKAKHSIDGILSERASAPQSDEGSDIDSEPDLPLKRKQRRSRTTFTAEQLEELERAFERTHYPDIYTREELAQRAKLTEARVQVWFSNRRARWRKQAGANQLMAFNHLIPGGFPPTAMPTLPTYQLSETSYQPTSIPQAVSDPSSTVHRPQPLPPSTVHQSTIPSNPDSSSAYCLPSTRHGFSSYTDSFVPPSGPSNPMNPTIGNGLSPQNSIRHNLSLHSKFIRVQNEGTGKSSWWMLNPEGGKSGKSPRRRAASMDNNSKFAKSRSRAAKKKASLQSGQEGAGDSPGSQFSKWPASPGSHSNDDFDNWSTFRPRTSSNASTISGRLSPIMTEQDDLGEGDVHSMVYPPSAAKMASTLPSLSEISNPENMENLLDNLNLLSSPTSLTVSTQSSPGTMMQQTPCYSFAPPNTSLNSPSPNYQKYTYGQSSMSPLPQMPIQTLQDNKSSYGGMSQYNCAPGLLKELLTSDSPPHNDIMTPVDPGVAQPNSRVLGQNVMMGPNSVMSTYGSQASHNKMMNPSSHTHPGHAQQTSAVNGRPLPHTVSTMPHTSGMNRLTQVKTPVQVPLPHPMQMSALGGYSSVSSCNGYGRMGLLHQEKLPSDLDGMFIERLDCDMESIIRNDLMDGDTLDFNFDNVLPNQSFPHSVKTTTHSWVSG

In the case of `CO[C@@H]1[C@H](N(C)C(=O)c2ccccc2)C[C@H]2O[C@]1(C)n1c3ccccc3c3c4c(c5c6ccccc6n2c5c31)C(=O)NC4` [PKC412, N-[(9S,10R,11R,13R)-2,3,10,11,12,13-hexahydro-10-methoxy-9-methyl-1-oxo-9,13-epoxy-1H,9H-diindolo[1,2,3-gh:3′,2′,1′-Im]pyrrolo[3,4-j][1,7]benzodiazonin-11-yl]-N-methylbenzamide], the tumor growth (aRMS) is reported as “inhibited”, the CB1 expression (PAX3/FKHR) is reported as “completely abolished” and the “cell growth of aRMS cells” value (aRMS cells [1]) is reported as “efficiently inhibit cell growth”. The apoptosis (aRMS cells [2]) was “induce apoptosis” and the “caspase 3 activity” value (aRMS cells [2]) was “enhanced caspase 3 activity”.
